The record followed here is ChEMBL document CHEMBL4359866, “A computer-assisted discovery of novel potential anti-obesity compounds as selective carbonic anhydrase VA inhibitors” (Eur J Med Chem, 2019).

pKi: −log10 of the molar value.

The target in one assay is Carbonic anhydrase 1 (Homo sapiens, UniProt P00915). In words: Inhibition of recombinant human carbonic anhydrase 1 preincubated with enzyme for 15 mins by phenol red dye based stopped flow CO2 hydration assay.
The target of the next assay is Carbonic anhydrase 2 (Homo sapiens, UniProt P00918). In words: Inhibition of recombinant human carbonic anhydrase 2 preincubated with enzyme for 15 mins by phenol red dye based stopped flow CO2 hydration assay.
Assay [1] has as its target Carbonic anhydrase 5A, mitochondrial (Homo sapiens, UniProt P35218). Description: Inhibition of recombinant human carbonic anhydrase VA preincubated with enzyme for 15 mins by phenol red dye based stopped flow CO2 hydration assay.

Chain of Carbonic anhydrase 1 (P00915 whole entry): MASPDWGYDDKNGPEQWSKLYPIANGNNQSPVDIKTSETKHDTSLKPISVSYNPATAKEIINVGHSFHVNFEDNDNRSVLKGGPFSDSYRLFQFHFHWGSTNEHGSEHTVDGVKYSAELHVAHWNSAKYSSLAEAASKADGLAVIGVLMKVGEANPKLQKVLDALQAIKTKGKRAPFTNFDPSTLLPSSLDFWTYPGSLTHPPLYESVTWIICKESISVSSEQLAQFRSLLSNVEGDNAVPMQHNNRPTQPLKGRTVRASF
Chain of Carbonic anhydrase 5A, mitochondrial (P35218 whole entry): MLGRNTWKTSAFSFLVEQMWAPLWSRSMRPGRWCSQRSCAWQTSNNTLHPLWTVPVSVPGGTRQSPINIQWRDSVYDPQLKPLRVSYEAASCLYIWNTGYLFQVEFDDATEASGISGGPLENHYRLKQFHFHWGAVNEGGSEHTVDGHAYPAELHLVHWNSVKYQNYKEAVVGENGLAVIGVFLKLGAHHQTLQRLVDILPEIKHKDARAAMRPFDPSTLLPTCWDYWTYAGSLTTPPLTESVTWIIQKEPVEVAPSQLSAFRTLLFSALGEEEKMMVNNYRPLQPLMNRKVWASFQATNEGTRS

For orientation: pKi means −log10 of the Ki, conventionally taken in molar units. As to `O=C(CSc1ccncc1)N[C@@H]1C(=O)N2C(C(=O)O)=C(CO)CS[C@H]12`, the pKi at Carbonic anhydrase 1 and at Carbonic anhydrase 2 was below 5.00 each time.

As for `Nc1nc(=O)c2nc(CNc3ccc(C(=O)N[C@H](CCC(=O)O)C(=O)O)cc3)cnc2[nH]1`, the results for the pKi (on Carbonic anhydrase 1; on Carbonic anhydrase 2; in assay [1]) were below 5.00, below 5.00 and 5.01, respectively.

In the case of `COc1cc2nccc(Oc3ccc(NC(=O)NC4CC4)c(Cl)c3)c2cc1C(N)=O` [LENVATINIB], the pKi on Carbonic anhydrase 1 was below 5.00; at Carbonic anhydrase 2 it was below 5.00; in assay [1], 6.88.

As to `CC(=O)c1cc(O)cc(O)c1`, the pKi at Carbonic anhydrase 1 and on Carbonic anhydrase 2 was below 5.00 in each case.

`O=C(COc1ccc2c3c(c(=O)oc2c1)CCC3)c1ccc(Cl)cc1`: the pKi (on Carbonic anhydrase 1; on Carbonic anhydrase 2; in assay [1]) was below 5.00 throughout.

Take `COc1cc(CC(=O)O)ccc1OS(=O)(=O)O`: the pKi on Carbonic anhydrase 1 and at Carbonic anhydrase 2 was below 5.00 throughout.

For `O=C(CCNc1n[nH]c(=O)[nH]c1=O)N/N=C\c1c(F)cccc1Cl`, the pKi on Carbonic anhydrase 1 and on Carbonic anhydrase 2 was below 5.00 each time.

Take `Nc1ccc2c(n1)[nH]c1ccccc12`: the pKi at Carbonic anhydrase 1 and at Carbonic anhydrase 2 was below 5.00 throughout.

With `O=C(Cc1nnc(O)nc1O)N/N=C/c1c(O)ccc2ccccc12`, the pKi was below 5.00 at Carbonic anhydrase 1, below 5.00 on Carbonic anhydrase 2 and 5.06 in assay [1].

Regarding `O=c1[nH]nc(SCc2ccc(Cl)cc2Cl)c(=O)[nH]1`, the pKi on Carbonic anhydrase 1 and at Carbonic anhydrase 2 was below 5.00 throughout.

Take `NC(=O)c1cn(Cc2c(F)cccc2F)nn1` [RUFINAMIDE]: the pKi is below 5.00 on Carbonic anhydrase 1, below 5.00 at Carbonic anhydrase 2 and 6.46 in assay [1].

As to `Nc1nc(F)nc2c1ncn2[C@@H]1O[C@H](COP(=O)(O)O)[C@@H](O)[C@@H]1O` [FLUDARABINE PHOSPHATE], the pKi on Carbonic anhydrase 1 was below 5.00; at Carbonic anhydrase 2 it was below 5.00; in assay [1], 6.88.
